Assay results from ChEMBL document CHEMBL6134905, “Double Swords in One: Novel Selective PI3K/110β PROTAC Degraders for the Treatment of Multidrug-Resistant Cancer by Activating ERS and Inhibiting P-gp” (J Med Chem, 2025).
Calls of active or inactive are those of the source. The calls are words filed in the database; no cut-off is given here.

Tests used:
[1] = test system: A549/CDDP; assay: Upregulation of PERK expression in human A549/DDP cells at 0.25 to 25 uM incubated for 24 hrs by Western blot analysis; assay type: functional, cell-based; details: dose 0.25-25 µM
[2] = test system: MCF7/ADM; assay: Upregulation of ATF6 expression in human MCF7/ADM cells at 0.25 to 25 uM incubated for 24 hrs by Western blot analysis; assay type: functional, cell-based; details: dose 0.25-25 µM
[3] = target: T1, von Hippel-Lindau disease tumor suppressor/Phosphatidylinositol 4,5-bisphosphate 3-kinase catalytic subunit beta isoform (Homo sapiens, UniProt P42338+P40337); assay: PROTAC activity at PI3K-p110beta/VHL in human A549/DDP cells assessed as reduction in PI3K-p110beta level by Western blot analysis; assay type: cell-based; details: time <= 48.0 hrs
[4] = test system: MCF7/ADM; assay: Induction of apoptosis in human MCF7/ADM cells assessed as decrease in bcl-2 expression at 12.5 uM incubated for 24 hrs by Western blot analysis; assay type: functional, cell-based
[5] = Toxicity in BALB/c mouse xenografted with human MCF7/ADM cells assessed as change in creatinine level at 50 mg/kg, ip; assay type: organism-based; details: in vivo
[6] = Toxicity in BALB/c mouse xenografted with human MCF7/ADM cells assessed as lung damage at 50 mg/kg, ip by H and E staining based analysis; assay type: organism-based; details: in vivo
[7] = test system: MCF7/ADM; assay: Induction of ROS level in human MCF7/ADM cells at 25 uM measured for 24 hrs by MitoSOX staining based analysis; assay type: functional, cell-based
[8] = test system: MCF7/ADM; assay: Upregulation of PERK expression in human MCF7/ADM cells at 0.25 to 25 uM incubated for 24 hrs by Western blot analysis; assay type: functional, cell-based; details: dose 0.25-25 µM
[9] = target: T1, von Hippel-Lindau disease tumor suppressor/Phosphatidylinositol 4,5-bisphosphate 3-kinase catalytic subunit beta isoform; assay: PROTAC activity at PI3K-p110beta/VHL in human A549/DDP cells assessed as induction of PI3K-p110beta degradation at 25 uM measured for 24 hrs in presence of VHL ligand by Western blot analysis; assay type: cell-based
[10] = test system: MCF7/ADM; assay: Upregulation of PTEN expression in human MCF7/ADM cells at 25 uM incubated for 24 hrs by Western blot analysis; assay type: functional, cell-based
[11] = test system: A549/CDDP; assay: Induction of apoptosis in human A549/DDP cells assessed as decrease in bax expression at 12.5 uM incubated for 24 hrs by Western blot analysis; assay type: functional, cell-based
[12] = test system: A549/CDDP; assay: Upregulation of p-IRE1 expression in human A549/DDP cells at 0.25 to 25 uM incubated for 24 hrs by Western blot analysis; assay type: functional, cell-based; details: dose 0.25-25 µM
[13] = test system: A549/CDDP; assay: Induction of oxidative stress in human A549/DDP cells at 25 uM measured for 24 hrs; assay type: functional, cell-based
[14] = test system: MCF7/ADM; assay: Antitumor activity against human MCF7/ADM cells xenografted in BALB/c mouse assessed as increase in ATF6 expression in tumor at 50 mg/kg, ip by Western blot analysis; assay type: functional, organism-based
[15] = test system: MCF7/ADM; assay: Antitumor activity against human MCF7/ADM cells xenografted in BALB/c mouse assessed as reduction in p-110beta expression in tumor at 50 mg/kg, ip by Western blot analysis; assay type: functional, organism-based
[16] = test system: A549/CDDP; assay: Induction of apoptosis in human A549/DDP cells assessed as increase in caspase-9 expression at 12.5 uM incubated for 24 hrs by Western blot analysis; assay type: functional, cell-based
[17] = test system: MCF7/ADM; assay: Induction of oxidative stress in human MCF7/ADM cells at 25 uM measured for 24 hrs; assay type: functional, cell-based
[18] = target: T1, von Hippel-Lindau disease tumor suppressor/Phosphatidylinositol 4,5-bisphosphate 3-kinase catalytic subunit beta isoform; assay: PROTAC activity at PI3K-p110beta/VHL in human MCF7/ADM cells assessed as induction of PI3K-p110beta degradation at 25 uM measured for 24 hrs in presence of MG132 by Western blot analysis; assay type: cell-based
[19] = test system: MCF7/ADM; assay: Antitumor activity against human MCF7/ADM cells xenografted in BALB/c mouse assessed as reduction in AKT expression in tumor at 50 mg/kg, ip by Western blot analysis; assay type: functional, organism-based
[20] = target: ATP-dependent translocase ABCB1 (Homo sapiens, UniProt P08183); assay: Inhibition of P-gp in human A549/DDP cells at 6.25 to 25 uM incubated for 24 hrs; assay type: cell-based; details: dose 6.25-25 µM
[21] = test system: MCF7/ADM; assay: Antitumor activity against human MCF7/ADM cells xenografted in BALB/c mouse assessed as increase in PERK expression in tumor at 50 mg/kg, ip by Western blot analysis; assay type: functional, organism-based
[22] = Toxicity in BALB/c mouse xenografted with human MCF7/ADM cells assessed as change in BUN level at 50 mg/kg, ip; assay type: organism-based; details: in vivo
[23] = target: T1, von Hippel-Lindau disease tumor suppressor/Phosphatidylinositol 4,5-bisphosphate 3-kinase catalytic subunit beta isoform; assay: PROTAC activity at PI3K-p110beta/VHL in human MCF7/ADM cells assessed as reduction in PI3K-p110beta level at 25 uM measured for 24 hrs by Western blot analysis; assay type: cell-based
[24] = test system: MCF7/ADM; assay: Antitumor activity against human MCF7/ADM cells xenografted in BALB/c mouse assessed as increase in cleaved caspase-9 expression in tumor at 50 mg/kg, ip by Western blot analysis; assay type: functional, organism-based
[25] = test system: A549/CDDP; assay: Upregulation of CHOP expression in human A549/DDP cells at 0.25 to 25 uM incubated for 24 hrs by Western blot analysis; assay type: functional, cell-based; details: dose 0.25-25 µM
[26] = test system: A549/CDDP; assay: Antitumor activity against human A549/DDP cells assessed as cell viability incubated for 24 hrs by MTT assay; assay type: functional, cell-based
[27] = test system: MCF7/ADM; assay: Antitumor activity against human MCF7/ADM cells xenografted in BALB/c mouse assessed as decrease in cleaved caspase-8 expression in tumor at 50 mg/kg, ip by Western blot analysis; assay type: functional, organism-based
[28] = test system: Mitochondrial membrane; assay: Induction of mitochondrial membrane potential loss in human MCF7/ADM cells assessed as increase in green fluorescence at 25 uM incubated for 48 hrs by JC-1 staining based flow cytometry
[29] = target: T1, von Hippel-Lindau disease tumor suppressor/Phosphatidylinositol 4,5-bisphosphate 3-kinase catalytic subunit beta isoform; assay: PROTAC activity at PI3K-p110beta/VHL in human A549/DDP cells assessed as induction of PI3K-p110beta degradation incubated for 24 hrs by Western blot analysis; assay type: cell-based; details: dose 0.04-50 µM
[30] = test system: A549/CDDP; assay: Induction of ROS level in human A549/DDP cells at 25 uM measured for 24 hrs by MitoSOX staining based analysis; assay type: functional, cell-based
[31] = test system: MCF7; assay: Antitumor activity against human MCF7 cells assessed as cell viability incubated for 24 hrs by MTT assay; assay type: functional, cell-based; details: MCF7, 24 h
[32] = Toxicity in BALB/c mouse xenografted with human MCF7/ADM cells assessed as change in AST level at 50 mg/kg, ip; assay type: organism-based; details: in vivo
[33] = Toxicity in BALB/c mouse xenografted with human MCF7/ADM cells assessed as change in HGB level at 50 mg/kg, ip; assay type: organism-based; details: in vivo
[34] = test system: A549/CDDP; assay: Upregulation of PTEN expression in human A549/DDP cells at 25 uM incubated for 24 hrs by Western blot analysis; assay type: functional, cell-based
[35] = Toxicity in BALB/c mouse xenografted with human MCF7/ADM cells assessed as heart damage at 50 mg/kg, ip by H and E staining based analysis; assay type: organism-based; details: in vivo
[36] = test system: MCF7/ADM; assay: Antitumor activity against human MCF7/ADM cells xenografted in BALB/c mouse assessed as increase in caspase-12 expression in tumor at 50 mg/kg, ip by Western blot analysis; assay type: functional, organism-based
[37] = test system: A549/CDDP; assay: Induction of apoptosis in human A549/DDP cells assessed as increase in cleaved caspase-3 expression at 12.5 uM incubated for 24 hrs by Western blot analysis; assay type: functional, cell-based

T1 sequence (P40337 whole entry, looked up, canonical isoform): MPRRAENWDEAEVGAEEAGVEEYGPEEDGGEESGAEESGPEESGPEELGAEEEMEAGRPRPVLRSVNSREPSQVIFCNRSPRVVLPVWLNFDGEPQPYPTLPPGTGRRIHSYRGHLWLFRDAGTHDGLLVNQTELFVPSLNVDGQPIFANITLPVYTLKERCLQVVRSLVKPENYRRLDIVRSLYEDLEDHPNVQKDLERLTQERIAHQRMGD
T1 sequence (P42338 whole entry, looked up, canonical isoform): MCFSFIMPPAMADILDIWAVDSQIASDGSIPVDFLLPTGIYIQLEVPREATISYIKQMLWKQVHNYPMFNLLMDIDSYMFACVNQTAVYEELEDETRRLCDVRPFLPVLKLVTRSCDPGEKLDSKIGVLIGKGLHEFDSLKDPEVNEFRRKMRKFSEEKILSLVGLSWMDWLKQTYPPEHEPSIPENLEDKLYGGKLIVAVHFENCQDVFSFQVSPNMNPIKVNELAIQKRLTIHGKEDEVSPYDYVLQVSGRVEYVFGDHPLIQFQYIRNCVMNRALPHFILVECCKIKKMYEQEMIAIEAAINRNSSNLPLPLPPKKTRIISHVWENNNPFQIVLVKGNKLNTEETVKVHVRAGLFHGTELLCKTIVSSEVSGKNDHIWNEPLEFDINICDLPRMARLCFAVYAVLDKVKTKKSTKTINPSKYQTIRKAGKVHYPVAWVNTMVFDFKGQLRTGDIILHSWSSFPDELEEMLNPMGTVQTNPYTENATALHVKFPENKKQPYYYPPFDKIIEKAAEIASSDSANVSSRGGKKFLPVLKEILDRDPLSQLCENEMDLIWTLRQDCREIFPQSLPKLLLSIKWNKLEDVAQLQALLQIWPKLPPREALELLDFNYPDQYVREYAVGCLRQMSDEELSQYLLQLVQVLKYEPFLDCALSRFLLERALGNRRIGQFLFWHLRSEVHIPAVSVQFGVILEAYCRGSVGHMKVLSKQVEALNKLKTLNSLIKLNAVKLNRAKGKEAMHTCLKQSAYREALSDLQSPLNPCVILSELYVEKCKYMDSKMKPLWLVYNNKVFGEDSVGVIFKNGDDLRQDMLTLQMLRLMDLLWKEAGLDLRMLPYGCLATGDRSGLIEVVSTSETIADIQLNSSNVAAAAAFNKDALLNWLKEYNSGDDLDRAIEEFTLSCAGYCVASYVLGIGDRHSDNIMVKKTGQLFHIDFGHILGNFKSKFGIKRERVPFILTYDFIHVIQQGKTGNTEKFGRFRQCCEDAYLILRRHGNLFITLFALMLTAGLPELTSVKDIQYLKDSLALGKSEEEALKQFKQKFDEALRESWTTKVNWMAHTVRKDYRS
Sequence of ATP-dependent translocase ABCB1 (P08183 whole entry): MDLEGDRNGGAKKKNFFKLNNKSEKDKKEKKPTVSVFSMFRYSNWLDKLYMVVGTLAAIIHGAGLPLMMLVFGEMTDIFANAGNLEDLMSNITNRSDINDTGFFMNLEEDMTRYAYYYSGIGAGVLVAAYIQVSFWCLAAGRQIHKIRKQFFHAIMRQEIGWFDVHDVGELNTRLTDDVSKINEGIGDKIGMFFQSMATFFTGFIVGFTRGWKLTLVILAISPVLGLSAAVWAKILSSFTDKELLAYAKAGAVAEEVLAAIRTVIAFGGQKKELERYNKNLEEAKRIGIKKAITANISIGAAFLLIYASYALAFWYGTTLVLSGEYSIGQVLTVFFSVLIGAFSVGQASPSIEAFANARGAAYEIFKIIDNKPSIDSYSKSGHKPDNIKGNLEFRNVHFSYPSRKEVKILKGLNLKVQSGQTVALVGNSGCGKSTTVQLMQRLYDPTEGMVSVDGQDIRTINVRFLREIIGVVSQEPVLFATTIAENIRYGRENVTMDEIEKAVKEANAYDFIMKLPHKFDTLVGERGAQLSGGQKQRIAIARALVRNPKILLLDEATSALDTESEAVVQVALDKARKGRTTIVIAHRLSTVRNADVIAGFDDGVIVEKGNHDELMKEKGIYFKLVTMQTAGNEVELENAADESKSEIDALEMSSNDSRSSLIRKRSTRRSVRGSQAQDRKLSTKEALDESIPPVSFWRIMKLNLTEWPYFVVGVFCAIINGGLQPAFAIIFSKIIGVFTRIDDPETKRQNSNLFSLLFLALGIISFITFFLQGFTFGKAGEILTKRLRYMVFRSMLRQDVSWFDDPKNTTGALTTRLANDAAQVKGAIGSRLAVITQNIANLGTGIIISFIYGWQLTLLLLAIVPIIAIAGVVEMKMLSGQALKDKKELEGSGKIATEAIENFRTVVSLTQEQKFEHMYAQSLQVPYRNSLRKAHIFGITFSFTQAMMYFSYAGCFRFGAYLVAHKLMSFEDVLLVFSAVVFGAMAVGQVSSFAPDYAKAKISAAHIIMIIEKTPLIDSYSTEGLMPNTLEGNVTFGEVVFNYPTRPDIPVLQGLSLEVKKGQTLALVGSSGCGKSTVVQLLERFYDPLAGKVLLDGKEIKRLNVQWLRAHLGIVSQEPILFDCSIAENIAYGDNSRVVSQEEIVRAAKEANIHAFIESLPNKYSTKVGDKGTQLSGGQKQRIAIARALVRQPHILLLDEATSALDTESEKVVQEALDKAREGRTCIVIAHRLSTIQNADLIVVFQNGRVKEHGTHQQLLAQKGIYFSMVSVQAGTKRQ

Cc1cc(C(C)Nc2ccccc2C(=O)NCCOCCOCCC(=O)N[C@H](C(=O)N2C[C@H](O)C[C@H]2C(=O)NCc2ccc(-c3scnc3C)cc2)C(C)(C)C)c2nc(N3CCOCC3)cc(=O)n2c1 (some centres undefined)
Activity [1]: Active
Activity [2]: Active
Activity [3]: Time-dependent-effect
Activity [4]: Active
Activity [5]: Non-toxic
Activity [6]: Non-toxic
Activity [7]: Active
Activity [8]: Active
Activity [9]: Active
Activity [10]: Active
Activity [11]: Active
Activity [12]: Active
Activity [13]: Active
Activity [14]: Active
Activity [15]: Active
Activity [16]: Active
Activity [17]: Active
Activity [18]: Active
Activity [19]: Active
inhibition (INH) [20]: Active
Activity [21]: Active
Activity [22]: Non-toxic
Activity [23]: Active
Activity [24]: Active
Activity [25]: Active
IC50 [26]: 43.1 µM
Activity [27]: Active
Activity [28]: Active
Activity [29]: Dose-dependent-effect
Activity [30]: Active
IC50 [31]: 33.9 µM
Activity [32]: Non-toxic
Activity [33]: Non-toxic
Activity [34]: Active
Activity [35]: Non-toxic
Activity [36]: Active
Activity [37]: Active

Cc1cc(C(C)Nc2ccccc2C(=O)NCCCCCCC(=O)N[C@H](C(=O)N2C[C@H](O)C[C@H]2C(=O)NCc2ccc(-c3scnc3C)cc2)C(C)(C)C)c2nc(N3CCOCC3)cc(=O)n2c1 (some centres undefined)
Activity [1]: Active
Activity [2]: Active
Activity [3]: Time-dependent-effect
Activity [4]: Active
Activity [5]: Non-toxic
Activity [6]: Non-toxic
Activity [7]: Active
Activity [8]: Active
Activity [9]: Active
Activity [10]: Active
Activity [11]: Active
Activity [12]: Active
Activity [13]: Active
Activity [14]: Active
Activity [15]: Active
Activity [16]: Active
Activity [17]: Active
Activity [18]: Active
Activity [19]: Active
inhibition (INH) [20]: Active
Activity [21]: Active
Activity [22]: Non-toxic
Activity [23]: Active
Activity [24]: Active
Activity [25]: Active
IC50 [26]: 39.2 µM
Activity [27]: Active
Activity [28]: Active
Activity [29]: Dose-dependent-effect
Activity [30]: Active
IC50 [31]: 54 µM
Activity [32]: Non-toxic
Activity [33]: Non-toxic
Activity [34]: Active
Activity [35]: Non-toxic
Activity [36]: Active
Activity [37]: Active
